Consider four compounds from ChEMBL document CHEMBL4145517, “Advances on photodynamic therapy of melanoma through novel ring-fused 5,15-diphenylchlorins” (Eur J Med Chem, 2018).

Calls of active or inactive are those of the source. The calls are words filed in the database; no cut-off is given here.

Series [1] in a line: Dark toxicity against human HFF1 cells at 1 to 10 uM after 24 hrs by MTT assay. Format: cell-based. The following applies: hff-1, 24 h.
Series [2] relates to A-375. Put plainly: Photocytotoxicity against human A375 cells preincubated for 24 hrs followed by exposure to light with fluence rate of 7.5 mW/cm2 until 10 J measured after 24 hrs by MTT assay. It counts as functional, cell-based. On the technique in general: Tetrazolium dyes change colour on reduction, which living cells bring about.
In series [3] the test system is A-375. The series can be described thus: Cell cycle arrest in human A375 cells assessed as accumulation at G1 phase up to 500 nM preincubated for 24 hrs followed by exposure to light with fluence rate of 7.5 mW/cm2 at 10 J and measured after 24 hrs by propidium iodide/RNase-staining based flow cytometric analysis. Format: functional. Background: A flow cytometer gives signals particle by particle.

Series [4] has as its system A-375. The series can be described thus: Decrease in intracellular peroxides generation in human A375 cells at 500 nM preincubated for 24 hrs followed by exposure to light with fluence rate of 7.5 mW/cm2 at 10 J and measured after 24 hrs by DCFH2-DA staining-based fluorescence analysis. It counts as functional, cell-based.
The test system of series [5] is A-375. The series can be described thus: Cell cycle arrest in human A375 cells assessed as accumulation at G2/M phase up to 500 nM preincubated for 24 hrs followed by exposure to light with fluence rate of 7.5 mW/cm2 at 10 J and measured after 24 hrs by propidium iodide/RNase-staining based flow cytometric analysis. Format: functional.
Series [6] deals with A-375. Put plainly: Photocytotoxicity against human A375 cells at 5 to 500 nM preincubated for 24 hrs followed by exposure to light with fluence rate of 7.5 mW/cm2 until 5 to 10 J and measured after 24 hrs by MTT assay. Format: functional, cell-based.
The test system of series [7] is A-375. The series can be described thus: Cell cycle arrest in human A375 cells assessed as accumulation at pre-G0 phase up to 500 nM preincubated for 24 hrs followed by exposure to light with fluence rate of 7.5 mW/cm2 at 10 J and measured after 24 hrs by propidium iodide/RNase-staining based flow cytometric analysis. Format: functional.
For series [8], the system named is A-375. The series can be described thus: Disruption of mitochondrial membrane potential in human A375 cells at 50 nM preincubated for 24 hrs followed by exposure to light with fluence rate of 7.5 mW/cm2 at 10 J and measured after 24 hrs by JC-1 staining-based assay. It counts as functional, cell-based.
Series [9] concerns A-375. The series can be described thus: Photocytotoxicity against human A375 cells at 5 to 50 nM preincubated for 24 hrs followed by exposure to light with fluence rate of 7.5 mW/cm2 until 20J and measured after 24 hrs by MTT assay. It counts as functional, cell-based.
The test system of series [10] is A-375. Put plainly: Photocytotoxicity against human A375 cells assessed as decrease in cell viability by measuring protein content at >= 50 nM preincubated for 24 hrs followed by exposure to light with fluence rate of 7.5 mW/cm2 at 10 J and measured after 24 hrs by sulforhodamine B assay. It counts as functional, cell-based. For orientation: The SRB assay estimates cell density from bound dye.

In series [11] the test system is A-375. Put plainly: Decrease in intracellular superoxide anion generation in human A375 cells at 500 nM preincubated for 24 hrs followed by exposure to light with fluence rate of 7.5 mW/cm2 at 10 J and measured after 24 hrs by dihydroethidium staining-based fluorescence analysis. Format: functional, cell-based.
The test system of series [12] is A-375. Put plainly: Induction of apoptosis in human A375 cells at 50 nM preincubated for 24 hrs followed by exposure to light with fluence rate of 7.5 mW/cm2 at 10 J and measured after 24 hrs by Annexin-V/propidium iodide staining-based FACS analysis. Format: functional, cell-based.
Series [13] has as its system A-375. The series can be described thus: Phototoxicity against human A375 cells assessed as reduction in cell viability up to 500 nM preincubated for 24 hrs followed by exposure to light with fluence rate of 7.5 mW/cm2 at 10 J and measured after 24 hrs in presence of hydroxyl radical scavenger D-mannitol by MTT assay. Format: functional, cell-based.
The nature of series [14]: Dark toxicity against human A375 cells at 1 to 10 uM after 24 hrs by MTT assay. Format: cell-based. The following applies: a-375, 24 h.
Series [15] relates to A-375. The series can be described thus: Induction of apoptosis in human A375 cells assessed as decrease in living cells at 500 nM preincubated for 24 hrs followed by exposure to light with fluence rate of 7.5 mW/cm2 at 10 J and measured after 24 hrs by Annexin-V/propidium iodide stainin-based FACS analysis. Format: functional. Also on record: scale not given: the % may be the effect or the level left.

Series [16] deals with A-375. Put plainly: Induction of p53 expression in human A375 cells at 50 nM preincubated for 24 hrs followed by exposure to light with fluence rate of 7.5 mW/cm2 at 10 J and measured after 24 hrs by Western blot analysis. It counts as functional, cell-based.
The subject of series [17] is A-375. The series can be described thus: Phototoxicity against human A375 cells assessed as reduction in cell viability up to 500 nM preincubated for 24 hrs followed by exposure to light with fluence rate of 7.5 mW/cm2 at 10 J and measured after 24 hrs in presence of singlet oxygen scavenger sodium azide by MTT assay. It counts as functional, cell-based.
Series [18] relates to A-375. Put plainly: Disruption of mitochondrial membrane potential in human A375 cells at 500 nM preincubated for 24 hrs followed by exposure to light with fluence rate of 7.5 mW/cm2 at 10 J and measured after 24 hrs by JC-1 staining-based assay. It counts as functional, cell-based.
Series [19] can be described thus: Drug uptake in human A375 cells preincubated for 24 hrs followed by exposure to light with fluence rate of 7.5 mW/cm2 at 10 J measured after 24 hrs by fluorescence spectroscopic analysis. It counts as ADME, cell-based. The following applies: a-375, 24 h.
The subject of series [20] is A-375. The series can be described thus: Induction of apoptosis in human A375 cells assessed as increase in necrotic cells at 500 nM preincubated for 24 hrs followed by exposure to light with fluence rate of 7.5 mW/cm2 at 10 J and measured after 24 hrs by Annexin-V/propidium iodide stainin-based FACS analysis. Format: functional, cell-based.
The subject of series [21] is A-375. The series can be described thus: Increase in expression of reduced glutathione in human A375 cells up to 500 nM preincubated for 24 hrs followed by exposure to light with fluence rate of 7.5 mW/cm2 at 10 J and measured after 24 hrs by mercury orange staining-based fluorescence analysis. Format: functional, cell-based.
A short description of series [22]: Dark toxicity against human HFF1 cells at 5 to 10 uM after 24 hrs by MTT assay. Format: cell-based. The following applies: hff-1, 24 h.
Series [23] is described as follows: Dark toxicity against human A375 cells at 5 to 10 uM after 24 hrs by MTT assay. It counts as cell-based. The following applies: a-375, 24 h.
For series [24], the system named is A-375. Put plainly: Induction of apoptosis in human A375 cells assessed as increase in necrotic cells at 50 nM preincubated for 24 hrs followed by exposure to light with fluence rate of 7.5 mW/cm2 at 10 J and measured after 24 hrs by Annexin-V/propidium iodide stainin-based FACS analysis. Format: functional, cell-based.

As for `OCc1nn2c(c1CO)CC1c3cc4ccc([nH]4)c(-c4ccccc4)c4nc(cc5ccc([nH]5)c(-c5ccccc5)c(n3)C1C2)C=C4` (stereo not drawn), the Activity entry is given as “Non-Toxic” in series [1], “Non-Toxic” in [14] and more than 50% in the series on A-375 [15]. This compound also showed a 50% inhibitory concentration (IC50) in the series on A-375 [2] of 4.9 nM. Moreover, the result in the series on A-375 [3], in the series on A-375 [4], with A-375 [5], with A-375 [6], in the series on A-375 [7] and in the series with A-375 [8] was Active. Besides, the result with A-375 [9], in the series on A-375 [10], with A-375 [11], in the series with A-375 [12], with A-375 [13] and with A-375 [16] was Active. For the same compound, the outcome in the series with A-375 [18] and with A-375 [20] was Active. Besides, the result in the series with A-375 [17] and with A-375 [21] was inactive. The Drug uptake entry in [19] is “Dose-dependent effect”.

Take `OCc1nn2c(c1CO)CC1c3nc(cc4ccc([nH]4)c(-c4ccccc4)c4nc(cc5ccc([nH]5)c3-c3ccccc3)C=C4)C1C2` (stereo not drawn): the half-maximal inhibitory concentration (IC50) in the series with A-375 [2] came out at 2.9 nM. The Activity result in series [22] and in series [23] was “Toxic” each time. Moreover, the outcome with A-375 [4], in the series on A-375 [6], in the series with A-375 [7], in the series with A-375 [8], in the series on A-375 [9] and in the series with A-375 [10] was Active. In addition, the outcome in the series on A-375 [11], in the series on A-375 [12], with A-375 [13], with A-375 [16] and in the series on A-375 [17] was Active. Besides, the result in the series on A-375 [15] and in the series with A-375 [21] was inactive. Besides, in [19], the Drug uptake result was “Dose-dependent effect”.

As to `COC(=O)c1nn2c(c1C(=O)OC)CC1c3nc(cc4ccc([nH]4)c(-c4ccccc4)c4nc(cc5ccc([nH]5)c3-c3ccccc3)C=C4)C1C2` (stereo not drawn), the Activity result is given as “Non-Toxic” in series [1], “Non-Toxic” in series [14] and more than 50% with A-375 [15]. The IC50 in the series on A-375 [2] amounted to 14.5 nM. Further, the result with A-375 [4], with A-375 [6], with A-375 [7], in the series with A-375 [8], in the series on A-375 [9] and in the series on A-375 [10] was Active. In addition, the result in the series with A-375 [11], in the series with A-375 [13], in the series with A-375 [16], in the series on A-375 [17], in the series on A-375 [18] and with A-375 [24] was Active. Further, the Drug uptake result in series [19] is reported as “Dose-dependent effect”. For the same compound, the result in the series with A-375 [21] was inactive.

Turning to `COC(=O)c1nn2c(c1C(=O)OC)CC1c3cc4ccc([nH]4)c(-c4ccccc4)c4nc(cc5ccc([nH]5)c(-c5ccccc5)c(n3)C1C2)C=C4` (stereo not drawn), the Activity entry in series [1] was “Non-Toxic”; in series [14] it was “Non-Toxic”; in the series with A-375 [15], more than 50%. Besides, it took 14.3 nM to reach half-maximal inhibition with A-375 [2] (IC50). For the same compound, the result in the series with A-375 [4], with A-375 [6], in the series with A-375 [7], with A-375 [8], in the series on A-375 [9] and in the series with A-375 [10] was Active. In addition, the outcome in the series on A-375 [11], in the series on A-375 [12], in the series with A-375 [13] and in the series with A-375 [16] was Active. Further, the result in the series on A-375 [17] and with A-375 [21] was inactive. Moreover, the Drug uptake entry in series [19] is recorded as “Dose-dependent effect”.

One may read the IC50 as the concentration that gives 50% inhibition.
